In paper PMC5218480 (PLoS ONE, 2017):

System: MV-4-11 cells
Test: Gene expression microarray analysis (Affymetrix PrimeView) and GSEA
Format: cell-based, human
Parameters: RFU PODN (11730768_x_at) / Fold change /veh PODN (11730768_x_at) / RFU LINC00158 (11744669_a_at) / Fold change /veh LINC00158 (11744669_a_at) / RFU DUSP10 (11751237_a_at) / Fold change /veh DUSP10 (11751237_a_at) / RFU ID3 (11757404_x_at) / Fold change /veh ID3 (11757404_x_at) / RFU PLEKHG5 (11737974_s_at) / Fold change /veh PLEKHG5 (11737974_s_at) / RFU LRRC4B (11730491_at) / Fold change /veh LRRC4B (11730491_at) / RFU GIMAP4 (11747438_a_at) / Fold change /veh GIMAP4 (11747438_a_at) / RFU KRT8 (11758183_x_at) / Fold change /veh KRT8 (11758183_x_at) / RFU CNN1 (11734310_a_at) / Fold change /veh CNN1 (11734310_a_at) / RFU VPS37D (11726825_at) / Fold change /veh VPS37D (11726825_at) / RFU C10orf10 (11716522_x_at) / Fold change /veh C10orf10 (11716522_x_at) / RFU KIR2DL2 /// KIR2DL4 /// KIR2DL5A /// KIR2DL5B /// KIR2DS1 /// KIR2DS2 /// KIR2DS3 /// KIR2DS4 /// KIR3DL3 /// KIR3DL3 /// KIR3DS1 (11738374_at) / Fold change /veh KIR2DL2 /// KIR2DL4 /// KIR2DL5A /// KIR2DL5B /// KIR2DS1 /// KIR2DS2 /// KIR2DS3 /// KIR2DS4 /// KIR3DL3 /// KIR3DL3 /// KIR3DS1 (11738374_at) / RFU C1QL1 (11718748_at) / Fold change /veh C1QL1 (11718748_at) / RFU TMPRSS4 (11747572_a_at) / Fold change /veh TMPRSS4 (11747572_a_at) / RFU HAMP (11756126_x_at) / Fold change /veh HAMP (11756126_x_at) / RFU RNFT2 (11725882_a_at) / Fold change /veh RNFT2 (11725882_a_at) / RFU NR4A2 (11747474_a_at) / Fold change /veh NR4A2 (11747474_a_at) / RFU ABCC12 (11746883_a_at) / Fold change /veh ABCC12 (11746883_a_at) / RFU TMEM136 (11760407_x_at) / Fold change /veh TMEM136 (11760407_x_at) / RFU CLDN22 /// WWC2 (11732394_at) / Fold change /veh CLDN22 /// WWC2 (11732394_at) / RFU HLA-DPB1 (11760878_x_at) / Fold change /veh HLA-DPB1 (11760878_x_at) / RFU SPINT1 (11716480_a_at) / Fold change /veh SPINT1 (11716480_a_at) / RFU GAP43 (11754022_s_at) / Fold change /veh GAP43 (11754022_s_at) / RFU A4GNT (11735810_at) / Fold change /veh A4GNT (11735810_at) / RFU PRB3 (11715151_x_at) / Fold change /veh PRB3 (11715151_x_at) / RFU TUBB4B (11761932_at) / Fold change /veh TUBB4B (11761932_at) / RFU CAPN14 (11732068_a_at) / Fold change /veh CAPN14 (11732068_a_at) / RFU TMCC2 (11721928_a_at) / Fold change /veh TMCC2 (11721928_a_at) / RFU IRGQ (11745062_a_at) / Fold change /veh IRGQ (11745062_a_at) / RFU FAM174B (11720279_a_at) / Fold change /veh FAM174B (11720279_a_at) / RFU TMPRSS4 (11748680_a_at) / Fold change /veh TMPRSS4 (11748680_a_at) / RFU FAM212B (11763350_a_at) / Fold change /veh FAM212B (11763350_a_at) / RFU PLEKHG5 (11743358_a_at) / Fold change /veh PLEKHG5 (11743358_a_at) / RFU ZSCAN30 (11745921_a_at) / Fold change /veh ZSCAN30 (11745921_a_at) / RFU CMKLR1 (11741424_a_at) / Fold change /veh CMKLR1 (11741424_a_at) / RFU LOC101060620 /// MAPK8IP1 (11723275_at) / Fold change /veh LOC101060620 /// MAPK8IP1 (11723275_at) / RFU SPTSSB (11747773_x_at) / Fold change /veh SPTSSB (11747773_x_at) / RFU PRSS12 (11739890_at) / Fold change /veh PRSS12 (11739890_at) / RFU BIN1 (11741810_x_at) / Fold change /veh BIN1 (11741810_x_at) / RFU WNT11 (11732464_a_at) / Fold change /veh WNT11 (11732464_a_at) / RFU C10orf10 (11716521_a_at) / Fold change /veh C10orf10 (11716521_a_at) / RFU C5orf56 (11738089_at) / Fold change /veh C5orf56 (11738089_at) / RFU CYB561 (11721691_x_at) / Fold change /veh CYB561 (11721691_x_at) / RFU ANKRD19P (11752326_a_at) / Fold change /veh ANKRD19P (11752326_a_at) / RFU OR2T12 /// OR2T33 /// OR2T8 (11738714_s_at) / Fold change /veh OR2T12 /// OR2T33 /// OR2T8 (11738714_s_at) / RFU VCAN (11748164_a_at) / Fold change /veh VCAN (11748164_a_at) / RFU JSRP1 (11732532_at) / Fold change /veh JSRP1 (11732532_at) / RFU KRTAP10-11 (11738290_x_at) / Fold change /veh KRTAP10-11 (11738290_x_at) / RFU MYO3A (11730013_a_at) / Fold change /veh MYO3A (11730013_a_at) / RFU EBF3 (11725865_a_at) / Fold change /veh EBF3 (11725865_a_at) / RFU CAMK2N1 (11719241_x_at) / Fold change /veh CAMK2N1 (11719241_x_at) / RFU C5orf56 (11738088_a_at) / Fold change /veh C5orf56 (11738088_a_at) / RFU OLFML3 (11715873_a_at) / Fold change /veh OLFML3 (11715873_a_at) / RFU LOC100653217 /// NTM (11731650_a_at) / Fold change /veh LOC100653217 /// NTM (11731650_a_at) / RFU MAPK11 (11762145_a_at) / Fold change /veh MAPK11 (11762145_a_at) / RFU FIZ1 (11724087_x_at) / Fold change /veh FIZ1 (11724087_x_at) / RFU OASL (11726364_x_at) / Fold change /veh OASL (11726364_x_at) / RFU SOX15 (11748057_x_at) / Fold change /veh SOX15 (11748057_x_at) / RFU CD79A (11719716_a_at) / Fold change /veh CD79A (11719716_a_at) / RFU HIST1H1D (11736915_at) / Fold change /veh HIST1H1D (11736915_at) / RFU CASKIN2 (11723855_a_at) / Fold change /veh CASKIN2 (11723855_a_at) / RFU LOC730098 (11760151_x_at) / Fold change /veh LOC730098 (11760151_x_at) / RFU OR4N2 (11742367_at) / Fold change /veh OR4N2 (11742367_at) / RFU PRRT2 (11749266_a_at) / Fold change /veh PRRT2 (11749266_a_at) / RFU SNX32 (11753110_a_at) / Fold change /veh SNX32 (11753110_a_at) / RFU CDHR5 (11726645_a_at) / Fold change /veh CDHR5 (11726645_a_at) / RFU RCAN1 (11760418_a_at) / Fold change /veh RCAN1 (11760418_a_at) / RFU FAM167A (11723789_a_at) / Fold change /veh FAM167A (11723789_a_at) / RFU FAM26E (11764081_at) / Fold change /veh FAM26E (11764081_at) / RFU ISYNA1 (11749810_s_at) / Fold change /veh ISYNA1 (11749810_s_at) / RFU ACY1 (11761880_at) / Fold change /veh ACY1 (11761880_at) / RFU 11764098_at / Fold change /veh 11764098_at / RFU SAMD14 (11745864_x_at) / Fold change /veh SAMD14 (11745864_x_at) / RFU NPB (11741838_a_at) / Fold change /veh NPB (11741838_a_at) / RFU TMPRSS6 (11731388_a_at) / Fold change /veh TMPRSS6 (11731388_a_at) / RFU KRTAP10-2 (11738614_at) / Fold change /veh KRTAP10-2 (11738614_at) / RFU ARHGAP8 /// PRR5-ARHGAP8 (11727945_x_at) / Fold change /veh ARHGAP8 /// PRR5-ARHGAP8 (11727945_x_at) / RFU KRTAP5-7 /// NADSYN1 (11734609_at) / Fold change /veh KRTAP5-7 /// NADSYN1 (11734609_at) / RFU RASL12 (11751679_a_at) / Fold change /veh RASL12 (11751679_a_at) / RFU CDKN2B (11736163_a_at) / Fold change /veh CDKN2B (11736163_a_at) / RFU PRF1 (11729649_at) / Fold change /veh PRF1 (11729649_at) / RFU, ZNF638 /// ZNF638-IT1 / Fold change vs veh, ZNF638 /// ZNF638-IT1 / RFU, PANK3 / Fold change vs veh, PANK3 / RFU, SH3YL1 / Fold change vs veh, SH3YL1 / RFU, ZEB2 / Fold change vs veh, ZEB2 / RFU, NRIP1 / Fold change vs veh, NRIP1 / RFU, PTTG1IP / Fold change vs veh, PTTG1IP / RFU, CAPN2 / Fold change vs veh, CAPN2 / RFU, MED14 / Fold change vs veh, MED14 / RFU, SNORA58 / Fold change vs veh, SNORA58 / RFU, C1orf63 / Fold change vs veh, C1orf63 / RFU, LRRFIP1 / Fold change vs veh, LRRFIP1 / RFU, NDUFAF7 / Fold change vs veh, NDUFAF7 / RFU, SLC12A2 / Fold change vs veh, SLC12A2 / RFU, IBTK / Fold change vs veh, IBTK / RFU, ESF1 / Fold change vs veh, ESF1 / Fold change vs veh, TMEM50B / RFU, TAOK1 / Fold change vs veh, TAOK1 / RFU, ACBD3 / Fold change vs veh, ACBD3 / RFU, TMA16 / Fold change vs veh, TMA16 / RFU, RWDD3 / Fold change vs veh, RWDD3 / RFU, BCAT1 / Fold change vs veh, BCAT1 / RFU, EDEM3 / Fold change vs veh, EDEM3 / RFU, TMEM33 / Fold change vs veh, TMEM33 / RFU, WDR75 / Fold change vs veh, WDR75 / RFU, AHCTF1 / Fold change vs veh, AHCTF1 / RFU, TFRC / Fold change vs veh, TFRC / RFU, ZDHHC17 / Fold change vs veh, ZDHHC17 / RFU, NOM1 / Fold change vs veh, NOM1 / RFU, ARL8B / Fold change vs veh, ARL8B / RFU, ZBTB11 / Fold change vs veh, ZBTB11 / RFU, TAMM41 / Fold change vs veh, TAMM41 / RFU, KIAA1704 /// LOC100996395 / Fold change vs veh, KIAA1704 /// LOC100996395 / RFU, ING1 / Fold change vs veh, ING1 / RFU, TRMT61B / Fold change vs veh, TRMT61B / RFU, FUBP3 / Fold change vs veh, FUBP3 / RFU, TP53 / Fold change vs veh, TP53 / RFU, TNKS2 / Fold change vs veh, TNKS2 / RFU, ZFP14 / Fold change vs veh, ZFP14 / RFU, ACTR2 / Fold change vs veh, ACTR2 / RFU, PPP3R1 / Fold change vs veh, PPP3R1 / RFU, PIK3R1 / Fold change vs veh, PIK3R1 / RFU, HNRNPA1 / Fold change vs veh, HNRNPA1 / RFU, RNF170 / Fold change vs veh, RNF170 / RFU, ZNF28 / Fold change vs veh, ZNF28 / RFU, RNGTT / Fold change vs veh, RNGTT / RFU, OGT / Fold change vs veh, OGT / RFU, BRD1 / Fold change vs veh, BRD1 / RFU, MARS / Fold change vs veh, MARS / RFU, ZNF655 / Fold change vs veh, ZNF655 / RFU, FAHD1 / Fold change vs veh, FAHD1 / RFU, BDP1 / Fold change vs veh, BDP1 / RFU, LRRCC1 / Fold change vs veh, LRRCC1 / RFU, ARID1A / Fold change vs veh, ARID1A / RFU, ZNF146 / Fold change vs veh, ZNF146 / RFU, ZNF330 / Fold change vs veh, ZNF330 / RFU, GPN3 / Fold change vs veh, GPN3 / RFU, C9orf123 / Fold change vs veh, C9orf123 / RFU, N4BP2L2 / Fold change vs veh, N4BP2L2 / RFU, ARFIP1 / Fold change vs veh, ARFIP1 / RFU, FAM179B / Fold change vs veh, FAM179B / RFU, BCL10 / Fold change vs veh, BCL10 / RFU, UHRF1BP1L / Fold change vs veh, UHRF1BP1L / RFU, BET1 / Fold change vs veh, BET1 / RFU, CNOT2 / Fold change vs veh, CNOT2 / RFU, ZNF268 / Fold change vs veh, ZNF268 / Fold change vs veh, ZNF507 / RFU, DGCR2 / Fold change vs veh, DGCR2 / RFU, WDSUB1 / Fold change vs veh, WDSUB1 / Fold change vs veh, HSP90B1 /// MIR3652 / RFU, ADSS / Fold change vs veh, ADSS / RFU, GK / Fold change vs veh, GK / RFU, ZNF148 / Fold change vs veh, ZNF148 / RFU, TAF9 / Fold change vs veh, TAF9 / RFU, SLC1A5 / Fold change vs veh, SLC1A5 / RFU, SLMO2 / Fold change vs veh, SLMO2 / RFU, ABCC4 / Fold change vs veh, ABCC4 / RFU, LOC101060439 /// RAP1B / Fold change vs veh, LOC101060439 /// RAP1B / RFU, RFX7 / Fold change vs veh, RFX7 / RFU, GTPBP10 / Fold change vs veh, GTPBP10 / RFU, CNEP1R1 / Fold change vs veh, CNEP1R1 / RFU, BIVM-ERCC5 /// ERCC5 / Fold change vs veh, BIVM-ERCC5 /// ERCC5 / RFU, ILF3 / Fold change vs veh, ILF3 / RFU 11762660_at / Fold change /veh 11762660_at / RFU VCAN (11757783_s_at) / Fold change /veh VCAN (11757783_s_at) / RFU DDX43 (11728927_at) / Fold change /veh DDX43 (11728927_at) / RFU KRT8 (11758188_x_at) / Fold change /veh KRT8 (11758188_x_at) / RFU NKD1 (11759106_at) / Fold change /veh NKD1 (11759106_at) / RFU SRD5A1 (11742802_a_at) / Fold change /veh SRD5A1 (11742802_a_at) / RFU TPSAB1 /// TPSB2 (11721975_s_at) / Fold change /veh TPSAB1 /// TPSB2 (11721975_s_at) / RFU GSTM3 (11746129_a_at) / Fold change /veh GSTM3 (11746129_a_at) / RFU IL23R (11737362_x_at) / Fold change /veh IL23R (11737362_x_at) / RFU TMEM51 (11727254_a_at) / Fold change /veh TMEM51 (11727254_a_at) / RFU PIWIL2 (11732686_x_at) / Fold change /veh PIWIL2 (11732686_x_at) / RFU ORM1 (11744905_x_at) / Fold change /veh ORM1 (11744905_x_at) / RFU CCDC152 (11743942_at) / Fold change /veh CCDC152 (11743942_at) / RFU ECM1 (11717891_a_at) / Fold change /veh ECM1 (11717891_a_at) / RFU IL23R (11748794_a_at) / Fold change /veh IL23R (11748794_a_at) / RFU TNFAIP8L3 (11732012_x_at) / Fold change /veh TNFAIP8L3 (11732012_x_at) / RFU MBOAT4 (11741988_at) / Fold change /veh MBOAT4 (11741988_at) / RFU 11764193_at / Fold change /veh 11764193_at / RFU TMEM53 (11763286_at) / Fold change /veh TMEM53 (11763286_at) / RFU MAGEB2 (11727129_at) / Fold change /veh MAGEB2 (11727129_at) / RFU TMEM200A (11744735_a_at) / Fold change /veh TMEM200A (11744735_a_at) / RFU CCDC152 (11751479_a_at) / Fold change /veh CCDC152 (11751479_a_at) / RFU FAM211A (11726209_a_at) / Fold change /veh FAM211A (11726209_a_at) / RFU RGS16 (11746705_a_at) / Fold change /veh RGS16 (11746705_a_at) / RFU VCAN (11755009_s_at) / Fold change /veh VCAN (11755009_s_at) / RFU RHOB (11743442_s_at) / Fold change /veh RHOB (11743442_s_at) / RFU RGS16 (11720943_a_at) / Fold change /veh RGS16 (11720943_a_at) / RFU RGS16 (11720944_at) / Fold change /veh RGS16 (11720944_at) / RFU, VPS4B / Fold change vs veh, VPS4B / RFU, CREB1 / Fold change vs veh, CREB1 / RFU, DNAJC13 / Fold change vs veh, DNAJC13 / RFU, GNAQ / Fold change vs veh, GNAQ / RFU, CDK5R1 / Fold change vs veh, CDK5R1 / RFU, ZRANB3 / Fold change vs veh, ZRANB3 / RFU, CUL4A / Fold change vs veh, CUL4A / RFU, CCNY / Fold change vs veh, CCNY / RFU, UFL1 / Fold change vs veh, UFL1 / RFU, COG3 / Fold change vs veh, COG3 / RFU, DIAPH2 / Fold change vs veh, DIAPH2 / RFU, SKA2 / Fold change vs veh, SKA2 / RFU, AFF3 / Fold change vs veh, AFF3 / RFU, LMF1 / Fold change vs veh, LMF1 / RFU, IPO11 / Fold change vs veh, IPO11 / RFU, DFFB / Fold change vs veh, DFFB / RFU, FOXP1 / Fold change vs veh, FOXP1 / RFU, CARD8 / Fold change vs veh, CARD8 / RFU, STRN3 / Fold change vs veh, STRN3 / RFU, ADK / Fold change vs veh, ADK / RFU, RASSF2 / Fold change vs veh, RASSF2 / RFU, WIPF1 / Fold change vs veh, WIPF1 / RFU, LARP1B / Fold change vs veh, LARP1B / RFU, RASA1 / Fold change vs veh, RASA1 / RFU, RB1 / Fold change vs veh, RB1 / RFU, PPFIA1 / Fold change vs veh, PPFIA1 / RFU, MAT2A / Fold change vs veh, MAT2A / RFU, CCT5 / Fold change vs veh, CCT5 / RFU, WDR92 / Fold change vs veh, WDR92 / RFU, CUX1 / Fold change vs veh, CUX1 / RFU, TTC7A / Fold change vs veh, TTC7A / RFU, TMEM135 / Fold change vs veh, TMEM135 / RFU, DEPTOR / Fold change vs veh, DEPTOR / RFU, CPM / Fold change vs veh, CPM / RFU, DNAJB6 / Fold change vs veh, DNAJB6 / RFU, CACNA2D3 / Fold change vs veh, CACNA2D3 / RFU, DTX4 / Fold change vs veh, DTX4 / RFU, TFCP2 / Fold change vs veh, TFCP2 / RFU, GMCL1 /// GMCL1P1 / Fold change vs veh, GMCL1 /// GMCL1P1 / RFU, AEBP2 / Fold change vs veh, AEBP2 / RFU, SNHG1 /// SNORD22 /// SNORD25 /// SNORD26 /// SNORD27 /// SNORD28 /// SNORD29 /// SNORD31 / Fold change vs veh, SNHG1 /// SNORD22 /// SNORD25 /// SNORD26 /// SNORD27 /// SNORD28 /// SNORD29 /// SNORD31 / Fold change (Aza/veh), C12orf56 (ProbeSet 11735607_a_at) / Fold change (ACY-1035/veh), C12orf56 (ProbeSet 11735607_a_at) / Fold change (Aza/veh), FGFR1OP (ProbeSet 11751329_s_at) / Fold change (ACY-1035/veh), FGFR1OP (ProbeSet 11751329_s_at) / Fold change (Aza/veh), VPS36 (ProbeSet 11739960_a_at) / Fold change (ACY-1035/veh), VPS36 (ProbeSet 11739960_a_at) / RFU SYPL1 (11715823_x_at) / Fold change /veh SYPL1 (11715823_x_at) / RFU IGFBP7 (11715501_s_at) / Fold change /veh IGFBP7 (11715501_s_at) / RFU REEP3 (11722064_at) / Fold change /veh REEP3 (11722064_at) / RFU IGLL1 (11728026_x_at) / Fold change /veh IGLL1 (11728026_x_at): dose or concentration left out as unconfirmed
Conditions: MV-4-11 cells, 48 hours

SMILES: Nc1ncn([C@@H]2O[C@H](CO)[C@@H](O)[C@H]2O)c(=O)n1 [azacitidine]
- Fold change /veh PIWIL2 (11732686_x_at): 1.30
